Key:
advanced prostate cancer = advanced prostate cancer patients with DNA repair gene mutations; phase II clinical trial; cited from earlier work
recurrent ovarian cancer = test: Phase I clinical trial of compound A alone in recurrent chemotherapy-resistant ovarian cancer; assay type: in vivo, human; settings: daily dose of 120 mg
Source text: Objective response rate (ORR) refers to the proportion of patients whose tumor shrinks to a certain extent and remains for a certain period of time, including cases of CR and PR. The response evaluation criteria in solid tumors (RECIST 1.1 criteria) are employed to assess tumor objective response. The subject must have measurable tumor lesions at baseline. The efficacy assessment criteria are classified into complete response (CR), partial response (PR), stable disease (SD), and progressive disease (PD) according to the RECIST 1.1 criteria.
Disease control rate (DCR) refers to the percentage of confirmed cases of complete response, partial response and stable disease (≥eight weeks) in patients with evaluable efficacy.
In the phase I clinical trial, the dose of compound A was 120 mg/d and above. 23 patients with recurrent ovarian cancer diagnosed by histology or cytology, who had received standard treatment failure, were enrolled. These patients had been subjected to at least second-line systemic chemotherapy during the recurrence and metastasis stage of ovarian cancer. The chemotherapy regimen was a platinum-based chemotherapy regimen. These patients were platinum-based treatment-resistant, or were intolerant to the chemotherapy toxicity during the treatment.
Compound A: the initial dose was 10 mg, 20 mg, 40 mg, 60 mg, 80 mg, 100 mg or 150 mg, administrated orally twice a day; or 120 mg or 160 mg, administrated orally once a day.

[1] = platinum-resistant ovarian cancer without BRCA mutations, 13 cases
[2] = recurrent platinum-resistant ovarian cancer, 22 evaluable cases out of 23

O=C(c1cc(Cc2n[nH]c(=O)c3ccccc23)ccc1F)N1CCN(C(=O)C2CC2)CC1 [Olaparib]
response (advanced prostate cancer): 88%

O=C(c1cc(Cc2n[nH]c(=O)c3ccccc23)ccc1F)N1CCn2nc(C(F)(F)F)nc2C1 [compound A]
disease control rate (DCR) (recurrent ovarian cancer; [1]): 84.6%
objective response rate (ORR) (recurrent ovarian cancer; [1]): 15.4%
disease control rate (DCR) (recurrent ovarian cancer; [2]): 81.8%
objective response rate (ORR) (recurrent ovarian cancer; [2]): 18.2%

From patent publication US20200281923A1, “USE OF PARP INHIBITOR IN TREATING CHEMOTHERAPY-RESISTANT OVARIAN CANCER OR BREAST CANCER” (JIANGSU HENGRUI MEDICINE CO., LTD., priority 2017, published 2020)
